What was measured:
[1] = tested on: male ob/ob mice; assay: Hypoglycemic action in ob/ob mice, oral administration; assay type: in vivo; conditions: Mus musculus, fasting, 3 hr after administration, relative to control group, read-out: Decrease in blood glucose level (%) 3 hr; for inhibition in vivo at 3 mg/kg: dose 3 mg/kg oral; for inhibition in vivo at 0.3 mg/kg: dose 0.3 mg/kg oral; for inhibition in vivo at 1 mg/kg: dose 1 mg/kg oral
Description: A 0.5% methyl cellulose suspension of the test compound was orally administered to male ob/ob mice (6 to 9 weeks old) grouped based on blood glucose level. A 0.5% methyl cellulose solution alone was administered to a control group.
The blood was drawn from the orbital vein with anesthesia at 3 hours after the administration. The blood was drawn under fasting by removing the feed immediately before test compound administration. The blood thus drawn was separated by centrifugation and the blood glucose level was measured from the obtained plasma according to the hexokinase method (glucose measure kit). For evaluation, decrease in the blood glucose level of the test compound administration group relative to the control group was shown in percentage.

[2] = biological target: T1, recombinant human protein tyrosine phosphatase 1B (Homo sapiens, UniProt P18031); assay: Protein tyrosine phosphatase 1B inhibitory action (malachite green, phosphorylated insulin receptor peptide substrate); assay type: biochemical; conditions: recombinant human PTP1B, 60 min room temperature, absorbance at 650 nm
T1 construct: purchased UBI
T1 sequence (P18031 1-435): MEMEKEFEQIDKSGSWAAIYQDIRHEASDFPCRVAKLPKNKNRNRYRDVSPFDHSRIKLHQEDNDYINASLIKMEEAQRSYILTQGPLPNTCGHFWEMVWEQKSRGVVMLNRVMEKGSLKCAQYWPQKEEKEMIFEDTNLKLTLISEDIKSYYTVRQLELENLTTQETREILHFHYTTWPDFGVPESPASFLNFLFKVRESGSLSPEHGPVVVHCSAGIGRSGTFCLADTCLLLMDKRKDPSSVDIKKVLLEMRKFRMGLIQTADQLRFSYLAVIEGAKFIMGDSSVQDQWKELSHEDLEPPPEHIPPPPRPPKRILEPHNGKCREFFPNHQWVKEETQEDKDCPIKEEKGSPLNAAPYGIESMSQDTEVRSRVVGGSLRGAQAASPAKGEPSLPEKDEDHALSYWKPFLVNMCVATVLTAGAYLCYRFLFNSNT
Description: Preparation of Assay Buffer:
50 mM Tris-HCl buffer (pH 7.5), and 50 mM NaCl and 3 mM dithiothreitol (DTT) were prepared.
Respective 10 mM DMSO solutions of 0.1, 0.3, 1, 3 and 10 μM test compounds were diluted with the above-mentioned assay buffer so that the final dimethyl sulfoxide (DMSO) concentration would be not more than 1%. As a control, an assay buffer was used.
Preparation of Substrate:
A synthetic peptide consisting of 12 amino acids corresponding to 1142nd–1153rd of insulin receptor sequence, wherein three tyrosines therein had been phosphorylated, was diluted with the above-mentioned assay buffer to 80 μM.
A recombinant human protein tyrosine phosphatase 1B (manufactured by UBI) was diluted with the above-mentioned assay buffer (1.2 ng/25 μl).
A sample (10 μl) and a substrate (25 μl) prepared as mentioned above were successively added to a 96 well plate, and an enzyme (25 μl) prepared as mentioned above was added and mixed. After incubation at room temperature for 60 min., malachite green (120 μl, Biomol), which is a phosphorus color fixing agent, was added, and the mixture was further incubated at room temperature for 20 min. to allow color development. The absorbance at 650 nm was measured on a plate reader, and the protein tyrosine phosphatase 1B inhibitory action of the test compound was evaluated.

[3] = tested on: db/db mice; assay: Blood lipid lowering action in db/db mice, oral administration once a day for 14 days; assay type: in vivo; conditions: non-fasting; for Plasma triglyceride concentration (mg/dL) Day 7: Day 7 (control group 508); for Plasma triglyceride concentration (mg/dL) Day 14: Day 14 (control group 622)
Description: A 0.5% methyl cellulose suspension of the test compound was orally administered to 7-week-old db/db mice once a day for 14 days. The 0.5% methyl cellulose solution alone was administered to the control group.
The blood was drawn from the orbital vein with light ether anesthesia before test compound administration on day 7 day 14 under non-fasting condition. The blood thus drawn was separated by centrifugation and the plasma triglyceride concentration was measured from the obtained plasma according to the enzyme method (triglyceride measure kit).

Compound | IC50 [2] [µM] | melting point | inhibition in vivo at 3 mg/kg [1] [%] | also measured
CC1CCC(c2ccc(CN(C)c3ccc(-c4csc(N(C)Cc5ccc(C(=O)O)cc5)n4)cc3)cc2)CC1 (centres unmarked) [Example 218, 4-((N-methyl-N-(4-(4-(N-methyl-N-(4-(4-methylcyclohexyl)benzyl)amino)phenyl)-2-thiazolyl)amino)methyl)benzoic acid] | 0.15 | 185 to 191 °C | 27 | –
CN(Cc1ccc(C(=O)O)cc1)c1nc(-c2ccc(OCc3ccc(C4CCCCC4)cc3)cc2)cs1 [Example 2, potassium 4-(N-(4-(4-(4-cyclohexylbenzyloxy)phenyl)-2-thiazolyl)-N-methylaminomethyl)benzoate] | 0.22 | – | 47 | inhibition in vivo at 1 mg/kg [1]: 37%
CN(Cc1ccc(C2CCC(Cl)(Cl)CC2)cc1)c1ccc(-c2csc(N(C)Cc3ccc(C(=O)O)cc3)n2)cc1 [Example 208, 4-((N-(4-(4-(N-(4-(4,4-dichlorocyclohexyl)benzyl)-N-methylamino)phenyl)-2-thiazolyl)-N-methylamino)methyl)benzoic acid] | 0.11 | 210 to 213 °C | 21 | –
CN(Cc1ccc(C(=O)O)cc1)c1nc(-c2ccc(NCc3ccc(C4CCCCC4)cc3)cc2)cs1 [Example 115, 4-((N-(4-(4-(4-cyclohexylbenzylamino)phenyl)-2-thiazolyl)-N-methylamino)methyl)benzoic acid] | 0.48 | 184 °C (dec.) | 34 | –
CN(Cc1ccc(C2CCCCC2)cc1)c1ccc(-c2csc(N(C)Cc3ccc(C(=O)O)cc3)n2)cc1 [Example 1, 4-(N-(4-(4-(N-(4-cyclohexylbenzyl)-N-methylamino)phenyl)-2-thiazolyl)-N-methylaminomethyl)benzoic acid] | 0.32 | – | 35 | inhibition in vivo at 0.3 mg/kg [1]: 35%; inhibition in vivo at 1 mg/kg [1]: 35%
CN(c1ccc(C(=O)O)cc1)c1nc(-c2ccc(NCc3ccc(C4CCCCC4)cc3)cc2)cs1 [Example 3, 4-(N-(4-(4-(4-cyclohexylbenzylamino)phenyl)-2-thiazolyl)-N-methylamino)benzoic acid] | 0.5 | – | 35 | inhibition in vivo at 1 mg/kg [1]: 27%
CC(C)N(c1ccc(C(=O)O)cc1)c1nc(-c2ccc(NC(=O)c3ccc(N4C[C@@H](C)O[C@@H](C)C4)cc3)cc2)cs1.Cl | – | 230 °C (dec.) | – | –
CC(C)N(Cc1ccc(-c2nnn[nH]2)cc1)c1nc(-c2ccc(OCc3ccc(C4CCCCC4)cc3)cc2)cs1 [Example 79, N-(4-(4-(4-cyclohexylbenzyloxy)phenyl)-2-thiazolyl)-N-isopropyl-(4-(1H-tetrazol-5-yl)benzyl)amine] | – | 238 to 239 °C | – | –
CC(C)(c1ccc(C(=O)O)cc1)c1nc(-c2ccc(NC(=O)c3ccc(N4CCCCC4)cc3)cc2)cs1 [Example 45, 4-(1-methyl-1-(4-(4-(4-piperidinobenzoylamino)phenyl)-2-thiazolyl)ethyl)benzoic acid] | – | 268 to 271 °C | – | –

Further lines, with some results ahead:

IC50 [2] [µM] | melting point | Compound | inhibition in vivo at 3 mg/kg [1] [%] | also measured
0.83 | 194 to 196 °C | CN(Cc1ccc([C@H]2CC[C@H](O)CC2)cc1)c1ccc(-c2csc(N(C)Cc3ccc(C(=O)O)cc3)n2)cc1 [Example 196, trans-4-((N-(4-(4-(N-(4-(4-hydroxycyclohexyl)benzyl)-N-methylamino)phenyl)-2-thiazolyl)-N-methylamino)methyl)benzoic acid] | -8 | –
0.11 | 155 to 158 °C | CN(Cc1ccc(C2CCC(C)(C)CC2)cc1)c1ccc(-c2csc(N(C)Cc3ccc(C(=O)O)cc3)n2)cc1 [Example 215, 4-((N-(4-(4-(N-(4-(4,4-dimethylcyclohexyl)benzyl)-N-methylamino)phenyl)-2-thiazolyl)-N-methylamino)methyl)benzoic acid] | 39 | inhibition in vivo at 0.3 mg/kg [1]: -9%; inhibition in vivo at 1 mg/kg [1]: 32%
0.15 | 114 to 115 °C | CCCC(CCC)c1ccc(CN(C)c2ccc(-c3csc(N(C)Cc4ccc(C(=O)O)cc4)n3)cc2)cc1 [Example 230, 4-((N-methyl-N-(4-(4-(N-methyl-N-(4-(1-propylbutyl)benzyl)amino)phenyl)-2-thiazolyl)amino)methyl)benzoic acid] | 40 | –
– | 240 °C | CN(Cc1ccc(C2CCCCC2)cc1)c1ccc(-c2csc(N(C)Cc3ccc(C(=O)[O-])cc3)n2)cc1.[Na+] [Example 102, sodium 4-(N-(4-(4-(N-(4-cyclohexylbenzyl)-N-methylamino)phenyl)-2-thiazolyl)-N-methylaminomethyl)benzoate] | – | Plasma triglyceride concentration (mg/dL) Day 7 ([3]; dose 10 mg/kg oral once a day): 277 mg/dL; Plasma triglyceride concentration (mg/dL) Day 14 ([3]; dose 10 mg/kg oral once a day): 349 mg/dL; Plasma triglyceride concentration (mg/dL) Day 7 ([3]; dose 30 mg/kg oral once a day): 250 mg/dL; Plasma triglyceride concentration (mg/dL) Day 14 ([3]; dose 30 mg/kg oral once a day): 307 mg/dL
0.26 | 188 to 190 °C | O=C(O)c1ccc(CN(CC2CCCCC2)c2nc(-c3nc4ccc(OCc5ccc(Cl)c(Cl)c5)cc4o3)cs2)cc1 [Example 217, 4-((N-cyclohexylmethyl-N-(4-(6-(3,4-dichlorobenzyloxy)-2-benzooxazolyl)-2-thiazolyl)amino)methyl)benzoic acid] | 20 | –
0.49 | 190 to 193 °C | CN(Cc1ccc(C2CCC(F)(F)CC2)cc1)c1ccc(-c2csc(N(C)Cc3ccc(C(=O)O)cc3)n2)cc1 [Example 209, 4-((N-(4-(4-(N-(4-(4,4-difluorocyclohexyl)benzyl)-N-methylamino)phenyl)-2-thiazolyl)-N-methylamino)methyl)benzoic acid] | 20 | –
– | 192 to 194 °C | CC(C)N(c1ccc(OCC(=O)O)cc1)c1nc(-c2ccc(NC(=O)c3cc(Cl)cc(Cl)c3)cc2)cs1 [Example 56, (4-(N-(4-(4-(3,5-dichlorobenzoylamino)phenyl)-2-thiazolyl)-N-isopropylamino)phenoxy)acetic acid] | – | –
– | 189 to 191 °C | CN(Cc1ccc(C2CCCC(=O)C2)cc1)c1ccc(-c2csc(N(C)Cc3ccc(C(=O)O)cc3)n2)cc1 (centres unmarked) [Example 207, 4-((N-methyl-N-(4-(4-(N-methyl-N-(4-(3-oxocyclohexyl)benzyl)amino)phenyl)-2-thiazolyl)amino)methyl)benzoic acid] | – | –
– | 170 to 175 °C | O=C(O)c1ccc(N(CCC2CCCCC2)c2nc(-c3cc(Cl)ccc3OCc3ccc(C(F)(F)F)cc3)cs2)cc1 [Example 177, 4-(N-(4-(5-chloro-2-(4-trifluoromethylbenzyloxy)phenyl)-2-thiazolyl)-N-(2-cyclohexylethyl)amino)benzoic acid] | – | –

— US7163952B2, “Azole compound and medicinal use thereof” (Japan Tobacco Inc., priority 2001, dated 2007)
